Measured values from ChEMBL document CHEMBL1153145, “Novel lead for potent inhibitors of breast cancer resistance protein (BCRP)” (Bioorg Med Chem Lett, 2010).

Tests used:
[1] = target: T1, Broad substrate specificity ATP-binding cassette transporter ABCG2 (Homo sapiens, UniProt Q9UNQ0); assay: Inhibition of BCRP expressed in MDCK cells by pheophorbide A assay; type: cell-based
T1 sequence (Q9UNQ0 whole entry): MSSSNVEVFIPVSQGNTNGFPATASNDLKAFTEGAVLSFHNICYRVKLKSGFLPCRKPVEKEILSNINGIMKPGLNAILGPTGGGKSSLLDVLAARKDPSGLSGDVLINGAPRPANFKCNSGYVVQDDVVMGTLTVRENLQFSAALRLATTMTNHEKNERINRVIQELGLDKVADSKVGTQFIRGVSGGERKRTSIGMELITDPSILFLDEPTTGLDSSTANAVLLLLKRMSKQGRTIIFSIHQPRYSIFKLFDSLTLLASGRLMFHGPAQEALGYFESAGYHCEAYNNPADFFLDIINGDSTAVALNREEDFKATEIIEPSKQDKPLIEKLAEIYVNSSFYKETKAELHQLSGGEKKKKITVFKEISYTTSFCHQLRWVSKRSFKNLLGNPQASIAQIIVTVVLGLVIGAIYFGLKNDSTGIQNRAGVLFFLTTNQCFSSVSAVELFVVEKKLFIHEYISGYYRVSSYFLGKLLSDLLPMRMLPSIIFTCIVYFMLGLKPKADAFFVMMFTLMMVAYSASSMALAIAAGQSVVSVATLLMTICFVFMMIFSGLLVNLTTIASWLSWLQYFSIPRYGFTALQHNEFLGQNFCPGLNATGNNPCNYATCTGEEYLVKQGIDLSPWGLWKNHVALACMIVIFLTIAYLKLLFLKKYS

[2] = target: T1, Broad substrate specificity ATP-binding cassette transporter ABCG2; assay: Inhibition of BCRP expressed in MCF7 MX cells by Hoechst 33342 staining; type: cell-based
[3] = target: Multidrug resistance-associated protein 1 (Homo sapiens, UniProt P33527); assay: Inhibition of MRP1 assessed as calcein AM accumulation by fluorescence assay
Multidrug resistance-associated protein 1, sequence (P33527 whole entry): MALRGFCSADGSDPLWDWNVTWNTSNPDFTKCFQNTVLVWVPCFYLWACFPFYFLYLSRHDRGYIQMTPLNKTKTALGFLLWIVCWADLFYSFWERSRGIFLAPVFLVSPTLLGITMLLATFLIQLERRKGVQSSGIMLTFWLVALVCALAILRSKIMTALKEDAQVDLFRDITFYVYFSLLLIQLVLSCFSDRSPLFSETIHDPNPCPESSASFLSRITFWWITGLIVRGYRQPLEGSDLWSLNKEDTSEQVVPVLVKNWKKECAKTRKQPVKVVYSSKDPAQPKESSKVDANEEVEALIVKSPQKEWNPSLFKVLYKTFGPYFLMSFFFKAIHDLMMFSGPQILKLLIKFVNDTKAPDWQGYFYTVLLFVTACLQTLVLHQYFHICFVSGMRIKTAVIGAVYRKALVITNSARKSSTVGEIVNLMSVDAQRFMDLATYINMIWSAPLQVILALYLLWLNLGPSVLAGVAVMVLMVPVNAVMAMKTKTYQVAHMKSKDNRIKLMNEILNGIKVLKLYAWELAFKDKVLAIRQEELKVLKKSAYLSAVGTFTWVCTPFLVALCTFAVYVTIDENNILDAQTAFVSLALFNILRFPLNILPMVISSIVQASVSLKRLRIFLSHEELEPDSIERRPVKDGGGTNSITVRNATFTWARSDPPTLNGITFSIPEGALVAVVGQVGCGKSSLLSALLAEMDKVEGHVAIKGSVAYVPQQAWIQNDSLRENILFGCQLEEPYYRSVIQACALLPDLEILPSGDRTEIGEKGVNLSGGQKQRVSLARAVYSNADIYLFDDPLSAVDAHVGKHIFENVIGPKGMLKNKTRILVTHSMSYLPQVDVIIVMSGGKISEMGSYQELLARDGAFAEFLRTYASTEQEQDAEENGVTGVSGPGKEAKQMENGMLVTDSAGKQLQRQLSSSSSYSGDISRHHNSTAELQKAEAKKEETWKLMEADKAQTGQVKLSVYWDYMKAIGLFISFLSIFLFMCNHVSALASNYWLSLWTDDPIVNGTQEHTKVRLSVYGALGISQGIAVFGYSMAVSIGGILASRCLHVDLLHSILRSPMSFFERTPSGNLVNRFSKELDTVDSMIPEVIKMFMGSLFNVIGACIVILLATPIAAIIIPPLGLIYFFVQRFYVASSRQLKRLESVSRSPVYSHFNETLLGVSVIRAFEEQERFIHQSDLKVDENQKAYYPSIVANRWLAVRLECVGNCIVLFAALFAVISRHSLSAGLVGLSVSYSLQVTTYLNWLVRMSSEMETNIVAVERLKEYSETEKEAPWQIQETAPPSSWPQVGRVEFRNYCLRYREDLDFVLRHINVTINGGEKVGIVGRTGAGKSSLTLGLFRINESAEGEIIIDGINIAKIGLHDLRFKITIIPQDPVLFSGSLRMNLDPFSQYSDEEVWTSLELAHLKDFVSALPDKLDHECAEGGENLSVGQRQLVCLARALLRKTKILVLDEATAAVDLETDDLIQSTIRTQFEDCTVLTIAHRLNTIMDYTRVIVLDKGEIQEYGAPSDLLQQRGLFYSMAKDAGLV

Compound	IC50 [1]	IC50 [2]	IC50 [3]
COc1ccc(C(=O)Nc2ccccc2C(=O)Nc2ccc(CCN3CCc4cc(OC)c(OC)cc4C3)cc2)cc1OC	0.86 µM	0.93 µM	> 20 µM
O=C(Nc1ccc(CCN2CCc3ccccc3C2)cc1)c1ccccc1[N+](=O)[O-]	45.7 µM	51.3 µM	–
Nc1ccccc1C(=O)Nc1ccc(CCN2CCc3ccccc3C2)cc1	20.9 µM	17.8 µM	–
COc1cc2c(cc1OC)CN(CCc1ccc(NC(=O)c3ccc(N)cc3)cc1)CC2	98.2 µM	219 µM	–
COc1cc2c(cc1OC)CN(CCc1ccc(NC(=O)c3cc(OC)c(OC)cc3NC(=O)c3cnc4ccccc4c3)cc1)CC2	0.85 µM	0.68 µM	–
COc1cc2c(cc1OC)CN(CCc1ccc(NC(=O)c3ccccc3N)cc1)CC2	20.7 µM	32.4 µM	–
COc1cc2c(cc1OC)CN(CCc1ccc(NC(=O)c3ccccc3[N+](=O)[O-])cc1)CC2	40 µM	77.6 µM	–
COc1cc2c(cc1OC)CN(CCc1ccc(NC(=O)Nc3ccccc3N)cc1)CC2	58.4 µM	66.1 µM	–
Nc1ccccc1NC(=O)Nc1ccc(CCN2CCc3ccccc3C2)cc1	74.1 µM	102 µM	–
COc1cc2c(cc1OC)CN(CCc1ccc(NC(=O)Nc3ccc(N)cc3)cc1)CC2	46.4 µM	74.1 µM	–
COc1cc2c(cc1OC)CN(CCc1ccc(NC(=O)Nc3ccc([N+](=O)[O-])cc3)cc1)CC2	2.61 µM	3.89 µM	–
COc1cc2c(cc1OC)CN(CCc1ccc(NC(=O)Nc3ccccc3[N+](=O)[O-])cc1)CC2	9.08 µM	10.2 µM	–
O=C(Nc1ccc(CCN2CCc3ccccc3C2)cc1)Nc1ccccc1[N+](=O)[O-]	8.71 µM	6.76 µM	–
COc1cc2c(cc1OC)CN(CCc1ccc(NC(=O)c3ccc([N+](=O)[O-])cc3)cc1)CC2	4.38 µM	6.92 µM	–
COc1cc2c(cc1OC)CN(CCc1ccc(NC(=O)c3ccccc3NC(=O)Nc3ccc([N+](=O)[O-])cc3)cc1)CC2	0.5 µM	0.54 µM	> 20 µM
COc1cc2c(cc1OC)CN(CCc1ccc(NC(=O)c3ccccc3NC(=O)c3ccc([N+](=O)[O-])cc3)cc1)CC2	0.63 µM	0.69 µM	> 20 µM
COc1ccc(C(=O)Nc2ccccc2NC(=O)Nc2ccc(CCN3CCc4cc(OC)c(OC)cc4C3)cc2)cc1OC	6.98 µM	10.2 µM	–
